The results in this text go back to ChEMBL document CHEMBL4732263 (Bioorg Med Chem, 2021).

The structures appear in SMILES notation. Converted amounts (≈) assume the structure as drawn.

The nature of data set [1]: in vitro. The settings on record: human, Caco-2.
Data set [2] in a line: in vitro. The settings on record: human, Caco-2. This is another data set of the same source.
A short description of data set [3]: in vitro. As to conditions: human, Caco-2. This is another data set of the same source.
For data set [4] the following is noted: human, microsomes, 1 h, 1 µM.
A short description of data set [5]: physchem. The settings on record: octanol/water, pH 7.4.
A short description of data set [6]: in vitro. The settings on record: human, liver microsomes. A general note: Liver microsomes are a subcellular fraction often used to study metabolism.
Data set [7] can be described thus: physchem. As to conditions: HCl, pH 2, pH 2.
The nature of data set [8]: in vitro. The settings on record: mouse, liver microsomes.
Data set [9] can be described thus: in vitro. As to conditions: mouse, liver microsomes. The source holds these as a separate data set.
A short description of data set [10]: physchem. As to conditions: PBS, pH 6.5, pH 6.5.
For data set [11] the following is noted: mouse, microsomes, 1 h, 1 µM.
Data set [12] can be described thus: in vitro. The settings on record: human, liver microsomes. This is another data set of the same source.
For data set [13] the following is noted: octanol/water, pH 7.4.

The efflux ratio is a quotient of directional permeabilities that is used to spot active efflux. As a reminder, the Papp B→A is the apparent permeability from the basolateral to the apical side of a cell layer. The term Papp A→B denotes how fast a substance crosses the layer from the apical side. Higher therefore signals ready permeation. Turning to `COC(=O)c1ccccc1-c1c2ccc(=N)cc-2oc2cc(N)ccc12`, the efflux ratio at 2 h, 20 µM in the data set “in vitro [1]” is 8.4. This molecule also showed a Papp B→A at 2 h, 20 µM in “in vitro [2]” of 12 ×10⁻⁶ cm/s. The apparent permeability from apical to basolateral (Papp A→B) at 2 h, 20 µM in the data set “in vitro [3]” is 1.4 ×10⁻⁶ cm/s.
What is called logD is the decadic logarithm of the distribution of all forms, ionised or not, between an organic phase and buffer at a given pH. A word on the microsomal CLint: it is the capacity of the preparation to metabolise the compound, expressed as a volume cleared per time. A high value points to faster metabolism. As usually defined, the kinetic solubility is solubility judged after dilution from a stock solution rather than from solid. The term half-life denotes how long it takes for the measured level to halve. Read a high half-life as slow loss. On to `N=C(N)NC(=O)c1nc(-c2ccc(C(F)(F)F)cc2)c(N2CCCCCC2)nc1N`, for which the CL free in [4] came to 355 µL/min/mg; in data set [11], 1020 µL/min/mg. In the data set “physchem [5]”, this molecule showed a logD above 5.3. Further, the intrinsic metabolic clearance (microsomal CLint) at 1 h, 1 µM in “in vitro [6]” stood at 23 µL/min/mg; in the data set “in vitro [9]”, 66 µL/min/mg. The solubility (kinetic) in the data set “physchem [7]” was 25 µg/mL (≈ 59.3 µM); in the data set “physchem [10]”, 3.1 µg/mL (≈ 7.36 µM). Also, the half-life at 1 h, 1 µM is 26 min in the data set “in vitro [8]” and 76 min in “in vitro [12]”.
For the molecule `N=C(N)NC(=O)c1nc(-c2ccco2)c(N2CCCCCC2)nc1N`, the CL free in [4] and in data set [11] was 687 µL/min/mg throughout. Moreover, the figures for the microsomal CLint at 1 h, 1 µM in “in vitro [6]” and in “in vitro [9]” were 35 µL/min/mg and 138 µL/min/mg, respectively. In addition, the results for the solubility (kinetic) in the data set “physchem [7]” and in “physchem [10]” were 50 µg/mL (≈ 146 µM) and 6.3 µg/mL (≈ 18.3 µM), respectively. Moreover, the results for the half-life at 1 h, 1 µM in the data set “in vitro [8]” and in the data set “in vitro [12]” were 13 min and 50 min, respectively.
As to `N=C(N)NC(=O)c1nc(-c2cc3ccccc3s2)c(N2CCCCCC2)nc1N`, the figures for the CL free in [4] and in [11] were 433 µL/min/mg and 1283 µL/min/mg, respectively. The logD in the data set “physchem [5]” was above 5.3. Also, the microsomal CLint at 1 h, 1 µM in “in vitro [6]” is 28 µL/min/mg; in “in vitro [9]” it was 83 µL/min/mg. Also, the kinetic solubility in the data set “physchem [7]” was 12.5 µg/mL (≈ 30.5 µM); in the data set “physchem [10]”, 3.1 µg/mL (≈ 7.57 µM). The half-life at 1 h, 1 µM in the data set “in vitro [8]” stood at 21 min; in “in vitro [12]” it was 62 min.
`N=C(N)NC(=O)c1nc(-c2cncnc2)c(N2CCCCCC2)nc1N` showed a logD in data set [13] of 2.8. For the same molecule, the CL free in data set [4] is 32 µL/min/mg; in [11] it was 27 µL/min/mg. Further, the microsomal CLint at 1 h, 1 µM in the data set “in vitro [6]” stood at 20 µL/min/mg; in the data set “in vitro [9]”, 17 µL/min/mg. Also, the kinetic solubility in the data set “physchem [7]” was above 100 µg/mL; in “physchem [10]” it was 12.5 µg/mL (≈ 35.2 µM). Besides, the half-life at 1 h, 1 µM in the data set “in vitro [8]” amounted to 100 min; in “in vitro [12]” it was 86 min.
